Experimental data as given in US20210115104A1, “AMYLIN ANALOGUES” (Zealand Pharma A/S, priority 2015, published 2021).
*1 amine or outer side, *2 acyl side, *3 side chain or, on linkers, in order; H or OH if unused. Where a SMILES comes first, the peptide text is derived from it. Bridges are numbered along the chain shown (N, C = ends). [ ]: non-standard residue; d: D form. The star is where a group is joined. C20 diacid = O=C(O)CCCCCCCCCCCCCCCCCCC(=O)*; γGlu = O=C(O)[C@H](CCC(=O)[*:2])N[*:1]; Hyp = O=C(O)[C@@H]1C[C@@H](O)CN1; NMeI = CC[C@H](C)[C@H](NC)C(=O)O; Aad = N[C@@H](CCCC(=O)O)C(=O)O; Orn = NCCC[C@H](N)C(=O)O; Sar = CNCC(=O)O

What was measured:
[1] = target: T1, human calcitonin receptor (hCTR2) (Homo sapiens, UniProt P30988); assay: hCTR2 cAMP assay (AlphaScreen) in COS7 cells; type: cell-based; details: cAMP induction, COS7 cells expressing hCTR2; Table 1; read-out: hCTR2 EC50
T1 construct: expressed in transfected cells
T1 sequence (P30988 25-474): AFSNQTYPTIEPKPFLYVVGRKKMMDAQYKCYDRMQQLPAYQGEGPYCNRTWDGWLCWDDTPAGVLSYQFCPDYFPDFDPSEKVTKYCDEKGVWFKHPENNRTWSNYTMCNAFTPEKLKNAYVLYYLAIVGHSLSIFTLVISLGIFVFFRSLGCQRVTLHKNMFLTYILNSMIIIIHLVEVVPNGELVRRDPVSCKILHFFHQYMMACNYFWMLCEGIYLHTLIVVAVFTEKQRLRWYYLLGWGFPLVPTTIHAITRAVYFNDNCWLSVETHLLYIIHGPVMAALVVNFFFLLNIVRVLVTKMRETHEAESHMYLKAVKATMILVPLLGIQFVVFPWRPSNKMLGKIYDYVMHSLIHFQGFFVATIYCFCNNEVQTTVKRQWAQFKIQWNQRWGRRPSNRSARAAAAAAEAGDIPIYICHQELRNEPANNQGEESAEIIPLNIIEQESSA
Summary of the method: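 Stable hCTR2 clone in RAMP-naïve COS7 cells stimulated 15 min at 37 °C with increasing peptide concentrations in Tyrode buffer pH 7.4 containing IBMX and 0.1% casein. cAMP in lysates measured by AlphaScreen; EC50 from 4-parameter logistic fit.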

[2] = target: T2, human amylin receptor 3 (hAMYR3), hCTR2 co-expressed with hRAMP3 (Homo sapiens, UniProt O60896+P30988); assay: hAMYR3 cAMP assay (AlphaScreen) in COS7 cells; type: cell-based; details: cAMP induction, COS7 cells expressing hAMYR3; Table 1; read-out: hAMYR3 EC50
T2 construct: expressed in transfected cells
T2 sequence (P30988 25-474): T1 sequence (P30988 25-474)
T2 sequence (O60896 24-148 partner): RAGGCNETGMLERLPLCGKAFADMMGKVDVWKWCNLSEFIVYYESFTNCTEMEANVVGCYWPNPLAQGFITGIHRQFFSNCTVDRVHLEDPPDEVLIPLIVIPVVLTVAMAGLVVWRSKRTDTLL
Summary of the method: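 Stable COS7 clone co-expressing hCTR2 and hRAMP3 was exposed to increasing peptide concentrations in Tyrode buffer (pH 7.4) with 100 µM IBMX and 0.1% casein for 15 min at 37 °C. Lysate cAMP was measured by AlphaScreen; EC50 came from 4-parameter logistic fitting.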

EC50 [1]	EC50 [2]	SMILES
0.1 nM	0.14 nM	CC[C@H](C)[C@@H](C(=O)N[C@@H](CC(C)C)C(=O)N[C@@H](CO)C(=O)N[C@@H](CO)C(=O)N[C@H](C(=O)N[C@@H](CCC(=O)O)C(=O)N[C@H](C(=O)NCC(=O)N[C@@H](CO)C(=O)N[C@@H](CO)C(=O)N[C@H](C(=O)N1CCC[C@H]1C(N)=O)[C@@H](C)O)C(C)C)[C@@H](C)O)N(C)C(=O)[C@H](C)NC(=O)CN(C)C(=O)[C@H](Cc1ccccc1)NC(=O)[C@H](CO)NC(=O)[C@H](CO)NC(=O)[C@H](CCCNC(=N)N)NC(=O)[C@@H](NC(=O)[C@H](CC(C)C)NC(=O)[C@H](Cc1ccccc1)NC(=O)[C@H](Cc1c[nH]cn1)NC(=O)[C@H](C)NC(=O)[C@H](CC(C)C)NC(=O)[C@H](CCCNC(=N)N)NC(=O)[C@H](CCC(=O)O)NC(=O)[C@@H](NC(=O)[C@H](C)NC(=O)[C@@H]1CSSC[C@H](NC(=O)[C@H](CCCNC(=N)N)NC(=O)CC[C@H](NC(=O)CCCCCCCCCCCCCCCCCCC(=O)O)C(=O)O)C(=O)NCC(=O)N[C@@H]([C@@H](C)O)C(=O)N[C@@H](C)C(=O)N[C@@H]([C@@H](C)O)C(=O)N1)[C@@H](C)O)[C@@H](C)O [Compound 46, [19CD]-isoGlu-R-C( )-GTAT-C( )-ATERLAHFLTRSSF-Gly(Me)-A-Ile(Me)-LSSTEVGSSTP-NH2] ({C20 diacid-γGlu}-RCGTATCATERLAHFLTRSSF[Sar]A[NMeI]LSSTEVGSSTP-NH2; disulfide 2-7)
0.1 nM	0.19 nM	CC[C@H](C)[C@@H](C(=O)N[C@@H](CC(C)C)C(=O)N[C@@H](CO)C(=O)N[C@@H](CO)C(=O)N[C@H](C(=O)N[C@@H](CCC(=O)O)C(=O)N[C@H](C(=O)NCC(=O)N[C@@H](CO)C(=O)N[C@@H](CCCN)C(=O)N[C@H](C(=O)N1CCC[C@H]1C(N)=O)[C@@H](C)O)C(C)C)[C@@H](C)O)N(C)C(=O)[C@H](C)NC(=O)CN(C)C(=O)[C@H](Cc1ccccc1)NC(=O)[C@H](CO)NC(=O)[C@H](CO)NC(=O)[C@H](CCCNC(=N)N)NC(=O)[C@@H](NC(=O)[C@H](CC(C)C)NC(=O)[C@H](Cc1ccccc1)NC(=O)[C@H](Cc1c[nH]cn1)NC(=O)[C@H](C)NC(=O)[C@H](CC(C)C)NC(=O)[C@H](CCCNC(=N)N)NC(=O)[C@H](CCC(=O)O)NC(=O)[C@@H](NC(=O)[C@H](C)NC(=O)[C@@H]1CSSC[C@H](NC(=O)[C@H](CCCNC(=N)N)NC(=O)CC[C@H](NC(=O)CCCCCCCCCCCCCCCCCCC(=O)O)C(=O)O)C(=O)NCC(=O)N[C@@H]([C@@H](C)O)C(=O)N[C@@H](C)C(=O)N[C@@H]([C@@H](C)O)C(=O)N1)[C@@H](C)O)[C@@H](C)O [Compound 47, [19CD]-isoGlu-R-C( )-GTAT-C( )-ATERLAHFLTRSSF-Gly(Me)-A-Ile(Me)-LSSTEVGS-Orn-TP-NH2] ({C20 diacid-γGlu}-RCGTATCATERLAHFLTRSSF[Sar]A[NMeI]LSSTEVGS[Orn]TP-NH2; disulfide 2-7)
0.12 nM	0.19 nM	CC[C@H](C)[C@@H](C(=O)N[C@@H](CC(C)C)C(=O)N[C@@H](CO)C(=O)N[C@@H](CO)C(=O)N[C@H](C(=O)N[C@@H](CCC(=O)O)C(=O)N[C@H](C(=O)NCC(=O)N[C@@H](CO)C(=O)N[C@@H](CC(N)=O)C(=O)N[C@H](C(=O)N1C[C@H](O)C[C@H]1C(N)=O)[C@@H](C)O)C(C)C)[C@@H](C)O)N(C)C(=O)[C@H](C)NC(=O)CN(C)C(=O)[C@H](Cc1ccccc1)NC(=O)[C@H](CO)NC(=O)[C@H](CO)NC(=O)[C@H](CCCNC(=N)N)NC(=O)[C@H](CCCC(=O)O)NC(=O)[C@H](CC(C)C)NC(=O)[C@H](Cc1ccccc1)NC(=O)[C@H](Cc1c[nH]cn1)NC(=O)[C@H](C)NC(=O)[C@H](CC(C)C)NC(=O)[C@H](CCCNC(=N)N)NC(=O)[C@H](CCC(N)=O)NC(=O)[C@@H](NC(=O)[C@H](C)NC(=O)[C@@H]1CSSC[C@H](NC(=O)[C@H](CCCNC(=N)N)NC(=O)CC[C@H](NC(=O)CCCCCCCCCCCCCCCCCCC(=O)O)C(=O)O)C(=O)N[C@@H](CC(N)=O)C(=O)N[C@@H]([C@@H](C)O)C(=O)N[C@@H](C)C(=O)N[C@@H]([C@@H](C)O)C(=O)N1)[C@@H](C)O [Compound 50, [19CD]-isoGlu-R-C( )-NTAT-C( )-ATQRLAHFL-Aad-RSSF-Gly(Me)-A-Ile(Me)-LSSTEVGSNT-Hyp-NH2] ({C20 diacid-γGlu}-RCNTATCATQRLAHFL[Aad]RSSF[Sar]A[NMeI]LSSTEVGSNT[Hyp]-NH2; disulfide 2-7)

The remaining lines, values behind:

SMILES	EC50 [1]	EC50 [2]
CC[C@H](C)[C@@H](C(=O)N[C@@H](CC(C)C)C(=O)N[C@@H](CO)C(=O)N[C@@H](CO)C(=O)N[C@H](C(=O)N[C@@H](CCC(=O)O)C(=O)N[C@H](C(=O)NCC(=O)N[C@@H](CO)C(=O)N[C@@H](Cc1ccccc1)C(=O)N[C@H](C(=O)N1CCC[C@H]1C(N)=O)[C@@H](C)O)C(C)C)[C@@H](C)O)N(C)C(=O)[C@H](C)NC(=O)CN(C)C(=O)[C@H](Cc1ccccc1)NC(=O)[C@H](CO)NC(=O)[C@H](CO)NC(=O)[C@H](CCCNC(=N)N)NC(=O)[C@H](CCC(N)=O)NC(=O)[C@H](CC(C)C)NC(=O)[C@H](Cc1ccccc1)NC(=O)[C@H](Cc1c[nH]cn1)NC(=O)[C@H](C)NC(=O)[C@H](CC(C)C)NC(=O)[C@H](CCCNC(=N)N)NC(=O)[C@H](CCC(=O)O)NC(=O)[C@@H](NC(=O)[C@H](C)NC(=O)[C@@H]1CSSC[C@H](NC(=O)[C@H](CCCNC(=N)N)NC(=O)CC[C@H](NC(=O)CCCCCCCCCCCCCCCCCCC(=O)O)C(=O)O)C(=O)NCC(=O)N[C@@H]([C@@H](C)O)C(=O)N[C@@H](C)C(=O)N[C@@H]([C@@H](C)O)C(=O)N1)[C@@H](C)O [Compound 39, [19CD]-isoGlu-R-C( )-GTAT-C( )-ATERLAHFLQRSSF-Gly(Me)-A-Ile(Me)-LSSTEVGSFTP-NH2] ({C20 diacid-γGlu}-RCGTATCATERLAHFLQRSSF[Sar]A[NMeI]LSSTEVGSFTP-NH2; disulfide 2-7)	0.16 nM	0.22 nM
CC[C@H](C)[C@@H](C(=O)N[C@@H](CC(C)C)C(=O)N[C@@H](CO)C(=O)N[C@@H](CO)C(=O)N[C@H](C(=O)N[C@@H](CCC(=O)O)C(=O)N[C@H](C(=O)NCC(=O)N[C@@H](CO)C(=O)N[C@@H](Cc1ccccc1)C(=O)N[C@H](C(=O)N1CCC[C@H]1C(N)=O)[C@@H](C)O)C(C)C)[C@@H](C)O)N(C)C(=O)[C@H](C)NC(=O)CN(C)C(=O)[C@H](Cc1ccccc1)NC(=O)[C@H](CO)NC(=O)[C@H](CO)NC(=O)[C@H](CCCNC(=N)N)NC(=O)[C@H](CC(N)=O)NC(=O)[C@H](CC(C)C)NC(=O)[C@H](Cc1ccccc1)NC(=O)[C@H](Cc1c[nH]cn1)NC(=O)[C@H](C)NC(=O)[C@H](CC(C)C)NC(=O)[C@H](CCCNC(=N)N)NC(=O)[C@H](CCC(=O)O)NC(=O)[C@@H](NC(=O)[C@H](C)NC(=O)[C@@H]1CSSC[C@H](NC(=O)[C@H](CCCNC(=N)N)NC(=O)CC[C@H](NC(=O)CCCCCCCCCCCCCCCCCCC(=O)O)C(=O)O)C(=O)NCC(=O)N[C@@H]([C@@H](C)O)C(=O)N[C@@H](C)C(=O)N[C@@H]([C@@H](C)O)C(=O)N1)[C@@H](C)O [Compound 40, [19CD]-isoGlu-R-C( )-GTAT-C( )-ATERLAHFLNRSSF-Gly(Me)-A-Ile(Me)-LSSTEVGSFTP-NH2] ({C20 diacid-γGlu}-RCGTATCATERLAHFLNRSSF[Sar]A[NMeI]LSSTEVGSFTP-NH2; disulfide 2-7)	0.12 nM	0.19 nM
CC[C@H](C)[C@@H](C(=O)N[C@@H](CC(C)C)C(=O)N[C@@H](CO)C(=O)N[C@@H](CO)C(=O)N[C@H](C(=O)N[C@@H](CCC(=O)O)C(=O)N[C@H](C(=O)NCC(=O)N[C@@H](CO)C(=O)N[C@@H](CCCN)C(=O)N[C@H](C(=O)N1C[C@H](O)C[C@H]1C(N)=O)[C@@H](C)O)C(C)C)[C@@H](C)O)N(C)C(=O)[C@H](C)NC(=O)CN(C)C(=O)[C@H](Cc1ccccc1)NC(=O)[C@H](CO)NC(=O)[C@H](CO)NC(=O)[C@H](CCCNC(=N)N)NC(=O)[C@@H](NC(=O)[C@H](CC(C)C)NC(=O)[C@H](Cc1ccccc1)NC(=O)[C@H](CCCC(=O)O)NC(=O)[C@H](C)NC(=O)[C@H](CC(C)C)NC(=O)[C@H](CCCNC(=N)N)NC(=O)[C@H](CCC(=O)O)NC(=O)[C@@H](NC(=O)[C@H](C)NC(=O)[C@@H]1CSSC[C@H](NC(=O)[C@H](CCCNC(=N)N)NC(=O)CC[C@H](NC(=O)CCCCCCCCCCCCCCCCCCC(=O)O)C(=O)O)C(=O)NCC(=O)N[C@@H]([C@@H](C)O)C(=O)N[C@@H](C)C(=O)N[C@@H]([C@@H](C)O)C(=O)N1)[C@@H](C)O)[C@@H](C)O [Compound 44, [19CD]-isoGlu-R-C( )-GTAT-C( )-ATERLA-Aad-FLTRSSF-Gly(Me)-A-Ile(Me)-LSSTEVGS-Orn-T-Hyp-NH2] ({C20 diacid-γGlu}-RCGTATCATERLA[Aad]FLTRSSF[Sar]A[NMeI]LSSTEVGS[Orn]T[Hyp]-NH2; disulfide 2-7)	0.2 nM	0.3 nM
